According to patent US20250313533A1, “QUINOLINE CARBOXYLIC ACID ESTER COMPOUND AND PREPARATION METHOD AND USE THEREOF” (priority 2019, published 2025):
Several values for one entry are separate records, joined by “and”; a condition that tells them apart may be missing. Identical values can stand only once. Like-named read-outs stand apart in the source and are kept apart here.

Experiments:
[1] = tested on: soft rot in Chinese cabbages
[2] = tested on: soft rot in lettuces; assay: Field test for controlling soft rot in lettuces; assay type: in vivo, lettuce; conditions: 7 days after the last application
Description: (§1) In October 2019, tests were carried out in fields of Chinese cabbage, wild cabbage and lettuce in Tai'an, Shandong. The doses of the compounds 152 and 282 of the present disclosure (both prepared as dispersible granules with a mass fraction of 10%) used were 16.87 ga.i./hm^2 and 33.75 ga.i./hm^2, and the control agents used were 3% (by weight) wettable powder of zhongshengmycin and 33.5% (by weight) aqueous suspension of oxine-copper (both were commercially available). The dose of zhongshengmycin was 67.5 ga.i./hm^2, and the dose of oxine-copper was 337.5 ga.i./hm^2. Test and control agents were arranged in randomized blocks. Plot area was 15 m^2. Treatment was repeated 3 times. The route of application was spraying on stem and leaves. The application was performed 2 times in total at an interval of 7 days, and the efficacy investigation was performed 7 days after the last application. During the investigation, sampling was carried out at 5 points in each plot. Disease conditions of soft rot in Chinese cabbages, soft rot in lettuces and soft rot in wild cabbages were recorded according to the relevant technical standard of Pesticide Guidelines for the Field Efficacy Trials GB/T17980.114-2004, and the incidence rate of plants was calculated to further evaluate the control effect.

[3] = tested on: pathogenic bacteria causing bacterial wilt in tobacco; assay: whole plant or invertebrate; assay type: cell-based, ralstonia; conditions: in vitro
[4] = tested on: stem rot in sweet potatoes
[5] = tested on: pathogenic bacteria causing bacterial wilt in cassava; assay: organism not typed; assay type: cell-based; conditions: in vitro
[6] = tested on: fruit blotch in watermelons
[7] = tested on: soft rot in Chinese cabbages; assay: Field test for controlling soft rot in Chinese cabbages; assay type: in vivo, Chinese cabbage; conditions: 7 days after the last application
Description: as §1

[8] = tested on: black shank in potatoes; assay: Living crops in vivo protective activity, potatoes (root irrigation)
Description: Root irrigation was carried out on the potatoes for tests according to the designed concentration of the agents. The dosage for each plant was 200 mL and was kept consistent (also for the control). The black shank bacteria were inoculated on the second day after the application. The results were investigated according to the disease condition.

[9] = tested on: pathogenic bacteria causing stem rot in sweet potatoes; assay: In vitro bactericidal activity, stem rot in sweet potatoes; assay type: cell-based, dikia
[10] = tested on: bacterial wilt in tobacco; conditions: seed soaking
[11] = tested on: pathogenic bacteria causing fruit blotch in watermelons; assay: In vitro bactericidal activity, fruit blotch in watermelons; assay type: cell-based, acidovorax
[12] = tested on: pathogenic bacteria causing fire blight in pears; assay: In vitro bactericidal activity, fire blight in pears; assay type: cell-based, erwinia
[13] = tested on: pathogenic bacteria causing black rot in Chinese cabbages; assay: In vitro bactericidal activity, black rot in Chinese cabbages; assay type: cell-based, xanthomonas
[14] = tested on: pathogenic bacteria causing bacterial angular leaf spot in cucumbers; assay: In vitro bactericidal activity, bacterial angular leaf spot in cucumbers; assay type: cell-based, pseudomonas
[15] = tested on: pathogenic bacteria causing bacterial blight in rice; assay: whole plant or invertebrate; assay type: cell-based, xanthomonas; conditions: in vitro
[16] = tested on: soft rot in wild cabbages; assay: Field test for controlling soft rot in wild cabbages; assay type: in vivo, wild cabbage; conditions: 7 days after the last application
Description: as §1

[17] = tested on: pathogenic bacteria causing black shank in potatoes; assay: In vitro bactericidal activity, black shank in potatoes; assay type: cell-based
[18] = dose 337.5 g a.i./hm^2, 2 sprays
[19] = dose 67.5 g a.i./hm^2, 2 sprays

| Molecule | inhibitory rate ([3]; dosage 1 ppm) | inhibitory rate ([3]; dosage 5 ppm) | inhibitory rate ([5]; dosage 1 ppm) | inhibitory rate ([5]; dosage 5 ppm) | efficacy against black shank in potatoes ([8]; dosage 5 ppm) | efficacy against black shank in potatoes ([8]; dosage 10 ppm) | inhibitory rate ([9]; dosage 1 ppm) | inhibitory rate ([9]; dosage 5 ppm) | efficacy against bacterial wilt in tobacco ([10]; dosage 5 ppm) | efficacy against bacterial wilt in tobacco ([10]; dosage 10 ppm) | inhibitory rate ([11]; dosage 1 ppm) | inhibitory rate ([11]; dosage 5 ppm) | inhibitory rate ([12]; dosage 1 ppm) | inhibitory rate ([12]; dosage 5 ppm) | inhibitory rate ([13]; dosage 1 ppm) | inhibitory rate ([13]; dosage 5 ppm) | inhibitory rate ([14]; dosage 1 ppm) | inhibitory rate ([14]; dosage 5 ppm) | inhibitory rate ([15]; dosage 1 ppm) | inhibitory rate ([15]; dosage 5 ppm) | further results |
| --- | --- | --- | --- | --- | --- | --- | --- | --- | --- | --- | --- | --- | --- | --- | --- | --- | --- | --- | --- | --- | --- |
| [Cu+2].[O-]c1cccc2cccnc12.[O-]c1cccc2cccnc12 [oxine-copper, reference compound] | 0% | 5% | 7% | 15% | 11% | 22% | 2% | 7% | 5% | 11% | 0% | 3% | 0% | 3% | 0% | 5% | 0% | 2% | 9% | 16% | efficacy against soft rot in Chinese cabbages ([1]; in vivo): 16% and 6%; Control effect (%) [2, 18]: 9%; efficacy against stem rot in sweet potatoes ([4]; in vivo): 20% and 13%; efficacy against fruit blotch in watermelons ([6]; in vivo): 22% and 15%; Control effect (%) [7, 18]: 13%; Control effect (%) [16, 18]: 11%; inhibitory rate ([17]; dosage 1 ppm): 0%; inhibitory rate ([17]; dosage 5 ppm): 3% |
| zhongshengmycin [reference compound] | 28% | 51% | 32% | 51% | 17% | 25% | 25% | 46% | 24% | 35% | 29% | 52% | 23% | 43% | 19% | 46% | 21% | 48% | 30% | 48% | efficacy against soft rot in Chinese cabbages ([1]; dosage 5 ppm, sprayed cut leaves, 48 h incubation): 23%; efficacy against soft rot in Chinese cabbages ([1]; dosage 10 ppm, sprayed cut leaves, 48 h incubation): 39%; Control effect (%) [2, 19]: 65%; efficacy against stem rot in sweet potatoes ([4]; dosage 5 ppm, seed soaking): 23%; efficacy against stem rot in sweet potatoes ([4]; dosage 10 ppm, seed soaking): 38%; efficacy against fruit blotch in watermelons ([6]; dosage 5 ppm, seed soaking): 19%; efficacy against fruit blotch in watermelons ([6]; dosage 10 ppm, seed soaking): 33%; Control effect (%) [7, 19]: 72%; Control effect (%) [16, 19]: 69%; inhibitory rate ([17]; dosage 1 ppm): 38%; inhibitory rate ([17]; dosage 5 ppm): 55% |
